#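 Compound exposure: 48 hours, 5 concentrations, 96-well plates. GI50: concentration for 50% inhibition of growth. TGI is the concentration that stops growth completely.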
# How the values were obtained:
# Test in all cases: NCI-60 cell line screen, 48 h
# OVCAR-5 ovarian = system: OVCAR-5 ovarian
# MDA-MB-231 breast = system: MDA-MB-231 breast
# HS 578T breast = system: HS 578T breast
# U251 CNS = system: U251 CNS
# UO-31 renal = system: UO-31 renal
# RXF 393 renal = system: RXF 393 renal
# MALME-3M melanoma = system: MALME-3M melanoma
# A549 NSCLC = system: A549 NSCLC
# SK-OV-3 ovarian = system: SK-OV-3 ovarian
# PC-3 prostate = system: PC-3 prostate
# NCI/ADR-RES ovarian = system: NCI/ADR-RES ovarian
# SW-620 colon = system: SW-620 colon
# SR leukemia = system: SR leukemia
# MCF7 breast = system: MCF7 breast
# SN12C renal = system: SN12C renal
# OVCAR-4 ovarian = system: OVCAR-4 ovarian
# NCI-H226 lung = system: NCI-H226 lung
# SF-268 CNS = system: SF-268 CNS
# HL-60(TB) leukemia = system: HL-60(TB) leukemia
# M14 melanoma = system: M14 melanoma
# EKVX NSCLC = system: EKVX NSCLC
# COLO 205 colon = system: COLO 205 colon
# ACHN renal = system: ACHN renal
# HCC-2998 colon = system: HCC-2998 colon
# SK-MEL-28 melanoma = system: SK-MEL-28 melanoma
# A498 renal = system: A498 renal
# UACC-257 melanoma = system: UACC-257 melanoma
# HCT-15 colon = system: HCT-15 colon
# K-562 leukemia = system: K-562 leukemia
# HT29 colon = system: HT29 colon
# IGROV1 ovarian = system: IGROV1 ovarian
# CCRF-CEM leukemia = system: CCRF-CEM leukemia
# NCI-H522 lung = system: NCI-H522 lung
# SK-MEL-5 melanoma = system: SK-MEL-5 melanoma
# OVCAR-8 ovarian = system: OVCAR-8 ovarian
# SK-MEL-2 melanoma = system: SK-MEL-2 melanoma
# KM12 colon = system: KM12 colon
# HOP-62 NSCLC = system: HOP-62 NSCLC
# SNB-19 CNS = system: SNB-19 CNS
# DU-145 prostate = system: DU-145 prostate
# SF-539 CNS = system: SF-539 CNS
# LOX IMVI melanoma = system: LOX IMVI melanoma
# TK-10 renal = system: TK-10 renal
# MDA-MB-435 = system: MDA-MB-435
# RPMI-8226 leukemia = system: RPMI-8226 leukemia
# NCI-H460 lung = system: NCI-H460 lung
# HCT-116 colon = system: HCT-116 colon
# SF-295 CNS = system: SF-295 CNS
# 786-0 renal = system: 786-0 renal
# BT-549 breast = system: BT-549 breast
# SNB-75 CNS = system: SNB-75 CNS
# NCI-H23 lung = system: NCI-H23 lung
# MOLT-4 leukemia = system: MOLT-4 leukemia
# HOP-92 NSCLC = system: HOP-92 NSCLC
# OVCAR-3 ovarian = system: OVCAR-3 ovarian
# CAKI-1 renal = system: CAKI-1 renal
# UACC-62 melanoma = system: UACC-62 melanoma
# T-47D breast = system: T-47D breast
smiles,measurement,setting,value
COC(=O)c1c(C)c2n(c1C)C(=O)C(c1ccccc1)=C2,GI50,OVCAR-5 ovarian,> 91.9 µM
same,TGI,OVCAR-5 ovarian,> 100 µM
same,GI50,MDA-MB-231 breast,24.3 µM
same,TGI,MDA-MB-231 breast,> 100 µM
same,GI50,HS 578T breast,8.13 µM
same,TGI,HS 578T breast,> 100 µM
same,GI50,U251 CNS,82.8 µM
same,TGI,U251 CNS,> 100 µM
same,GI50,UO-31 renal,31.7 µM
same,TGI,UO-31 renal,> 100 µM
same,GI50,RXF 393 renal,55 µM
same,TGI,RXF 393 renal,> 100 µM
same,GI50,MALME-3M melanoma,> 100 µM
same,TGI,MALME-3M melanoma,> 100 µM
same,GI50,A549 NSCLC,> 81.2 µM
same,TGI,A549 NSCLC,> 100 µM
same,GI50,SK-OV-3 ovarian,> 73.9 µM
same,TGI,SK-OV-3 ovarian,> 100 µM
same,GI50,PC-3 prostate,> 80.6 µM
same,TGI,PC-3 prostate,> 100 µM
same,GI50,NCI/ADR-RES ovarian,53.2 µM
same,TGI,NCI/ADR-RES ovarian,> 100 µM
same,GI50,SW-620 colon,48.6 µM
same,TGI,SW-620 colon,> 100 µM
same,GI50,SR leukemia,> 50.1 µM
same,TGI,SR leukemia,> 100 µM
same,GI50,MCF7 breast,5.32 µM
same,TGI,MCF7 breast,> 100 µM
same,GI50,SN12C renal,> 100 µM
same,TGI,SN12C renal,> 100 µM
same,GI50,OVCAR-4 ovarian,50.4 µM
same,TGI,OVCAR-4 ovarian,> 100 µM
same,GI50,NCI-H226 lung,> 100 µM
same,TGI,NCI-H226 lung,> 100 µM
same,GI50,SF-268 CNS,> 100 µM
same,TGI,SF-268 CNS,> 100 µM
same,GI50,HL-60(TB) leukemia,53.8 µM
same,TGI,HL-60(TB) leukemia,> 100 µM
same,GI50,M14 melanoma,> 71 µM
same,TGI,M14 melanoma,> 100 µM
same,GI50,EKVX NSCLC,5.91 µM
same,TGI,EKVX NSCLC,> 100 µM
same,GI50,COLO 205 colon,> 93 µM
same,TGI,COLO 205 colon,> 100 µM
same,GI50,ACHN renal,> 87.6 µM
same,TGI,ACHN renal,> 100 µM
same,GI50,HCC-2998 colon,> 57.8 µM
same,TGI,HCC-2998 colon,> 100 µM
same,GI50,SK-MEL-28 melanoma,> 87.8 µM
same,TGI,SK-MEL-28 melanoma,> 100 µM
same,GI50,A498 renal,> 84.7 µM
same,TGI,A498 renal,> 100 µM
same,GI50,UACC-257 melanoma,> 100 µM
same,TGI,UACC-257 melanoma,> 100 µM
same,GI50,HCT-15 colon,28.9 µM
same,TGI,HCT-15 colon,> 100 µM
same,GI50,K-562 leukemia,45.3 µM
same,TGI,K-562 leukemia,> 100 µM
same,GI50,HT29 colon,41.1 µM
same,TGI,HT29 colon,> 100 µM
same,GI50,IGROV1 ovarian,34.4 µM
same,TGI,IGROV1 ovarian,> 100 µM
same,GI50,CCRF-CEM leukemia,51.8 µM
same,TGI,CCRF-CEM leukemia,> 100 µM
same,GI50,NCI-H522 lung,58.2 µM
same,TGI,NCI-H522 lung,> 100 µM
same,GI50,SK-MEL-5 melanoma,26.9 µM
same,TGI,SK-MEL-5 melanoma,> 100 µM
same,GI50,OVCAR-8 ovarian,> 90.9 µM
same,TGI,OVCAR-8 ovarian,> 100 µM
same,GI50,SK-MEL-2 melanoma,> 100 µM
same,TGI,SK-MEL-2 melanoma,> 100 µM
same,GI50,KM12 colon,49.7 µM
same,TGI,KM12 colon,> 100 µM
same,GI50,HOP-62 NSCLC,67.1 µM
same,TGI,HOP-62 NSCLC,> 100 µM
same,GI50,SNB-19 CNS,> 95.6 µM
same,TGI,SNB-19 CNS,> 100 µM
same,GI50,DU-145 prostate,> 100 µM
same,TGI,DU-145 prostate,> 100 µM
same,GI50,SF-539 CNS,> 88.8 µM
same,TGI,SF-539 CNS,> 100 µM
same,GI50,LOX IMVI melanoma,58.8 µM
same,TGI,LOX IMVI melanoma,> 100 µM
same,GI50,TK-10 renal,48.2 µM
same,TGI,TK-10 renal,> 100 µM
same,GI50,MDA-MB-435,25.1 µM
same,TGI,MDA-MB-435,> 100 µM
same,GI50,RPMI-8226 leukemia,25.9 µM
same,TGI,RPMI-8226 leukemia,> 100 µM
same,GI50,NCI-H460 lung,58.2 µM
same,TGI,NCI-H460 lung,> 100 µM
same,GI50,HCT-116 colon,42.5 µM
same,TGI,HCT-116 colon,> 100 µM
same,GI50,SF-295 CNS,> 61.9 µM
same,TGI,SF-295 CNS,> 100 µM
same,GI50,786-0 renal,88.1 µM
same,TGI,786-0 renal,> 100 µM
same,GI50,BT-549 breast,61.6 µM
same,TGI,BT-549 breast,> 100 µM
same,GI50,SNB-75 CNS,30.1 µM
same,TGI,SNB-75 CNS,> 100 µM
same,GI50,NCI-H23 lung,> 58.3 µM
same,TGI,NCI-H23 lung,> 100 µM
same,GI50,MOLT-4 leukemia,30.8 µM
same,TGI,MOLT-4 leukemia,> 100 µM
same,GI50,HOP-92 NSCLC,> 47.1 µM
same,TGI,HOP-92 NSCLC,> 100 µM
same,GI50,OVCAR-3 ovarian,45.4 µM
same,TGI,OVCAR-3 ovarian,> 100 µM
same,GI50,CAKI-1 renal,> 47.9 µM
same,TGI,CAKI-1 renal,> 100 µM
same,GI50,UACC-62 melanoma,28.1 µM
same,TGI,UACC-62 melanoma,> 100 µM
same,GI50,T-47D breast,9.38 µM
same,TGI,T-47D breast,> 100 µM
O=C1CCCC/C1=C(\Br)I,TGI,OVCAR-5 ovarian,33.2 µM
same,TGI,MDA-MB-231 breast,32.5 µM
same,TGI,HS 578T breast,> 100 µM
same,TGI,U251 CNS,34 µM
same,TGI,UO-31 renal,31.5 µM
same,TGI,RXF 393 renal,29.5 µM
same,TGI,MALME-3M melanoma,12.1 µM
same,TGI,A549 NSCLC,58.6 µM
same,TGI,SK-OV-3 ovarian,49.2 µM
same,TGI,PC-3 prostate,32.9 µM
same,TGI,NCI/ADR-RES ovarian,41.1 µM
same,TGI,SW-620 colon,10.4 µM
same,TGI,SR leukemia,9.49 µM
same,TGI,MCF7 breast,32.9 µM
same,TGI,SN12C renal,30.8 µM
same,TGI,OVCAR-4 ovarian,29.3 µM
same,TGI,NCI-H226 lung,43.7 µM
same,TGI,SF-268 CNS,14.8 µM
same,TGI,HL-60(TB) leukemia,5.71 µM
same,TGI,M14 melanoma,20.1 µM
same,TGI,EKVX NSCLC,34.4 µM
same,TGI,COLO 205 colon,28.8 µM
same,TGI,ACHN renal,29.6 µM
same,TGI,HCC-2998 colon,9.79 µM
same,TGI,SK-MEL-28 melanoma,29.9 µM
same,TGI,A498 renal,35.7 µM
same,TGI,UACC-257 melanoma,30.5 µM
same,TGI,HCT-15 colon,7.97 µM
same,TGI,K-562 leukemia,10.3 µM
same,TGI,HT29 colon,27.4 µM
same,TGI,IGROV1 ovarian,40.8 µM
same,TGI,CCRF-CEM leukemia,5.68 µM
same,TGI,NCI-H522 lung,3.48 µM
same,TGI,SK-MEL-5 melanoma,42.1 µM
same,TGI,OVCAR-8 ovarian,28.1 µM
same,TGI,SK-MEL-2 melanoma,38.6 µM
same,TGI,KM12 colon,34 µM
same,TGI,HOP-62 NSCLC,36.7 µM
same,TGI,SNB-19 CNS,47.5 µM
same,TGI,DU-145 prostate,26 µM
same,TGI,SF-539 CNS,41.2 µM
same,TGI,LOX IMVI melanoma,32.4 µM
same,TGI,TK-10 renal,18.4 µM
same,TGI,MDA-MB-435,29.4 µM
same,TGI,RPMI-8226 leukemia,16.5 µM
same,TGI,NCI-H460 lung,33 µM
same,TGI,HCT-116 colon,25 µM
same,TGI,SF-295 CNS,37.7 µM
same,TGI,786-0 renal,37.5 µM
same,TGI,BT-549 breast,31.6 µM
same,TGI,SNB-75 CNS,34.8 µM
same,TGI,NCI-H23 lung,16.8 µM
same,TGI,MOLT-4 leukemia,7.17 µM
same,TGI,HOP-92 NSCLC,31.8 µM
same,TGI,OVCAR-3 ovarian,32.1 µM
same,TGI,CAKI-1 renal,24.9 µM
same,TGI,UACC-62 melanoma,38.3 µM
same,TGI,T-47D breast,15.2 µM
